Reference: patent US11413283B2, “Topical formulations for delivery of hedgehog inhibitor compounds and use thereof” (PellePharm, Inc., priority 2015, dated 2022)
Like-named read-outs stand apart in the source and are kept apart here. Blank lines part the entries; values can stand above or below the compound they belong to.

Legend:
[1] = system: Hedgehog (Hh) signaling pathway; details: Kim and Beachy, Cancer Cell, 17, 388-399, 2010; read-out: IC50 value for itraconazole (half maximal inhibitory concentration); cited from earlier work
[2] = Saturated solubility of itraconazole in solvents and solvent systems; format: physicochemical
[3] = Toxicokinetics of patidegib and metabolite IPI-230 in plasma after twice daily dermal application for 13 weeks; format: in vivo, Gottingen Minipig; details: for Cmax / AUC(0-t) / Tmax: Gottingen, minipig, plasma, topical or ocular; for Cmax / AUC(0-t): Gottingen Minipig plasma; for AUC(0-t): read-out: Mean Patidegib AUC0-24; for Tmax: dermal, minipig plasma, read-out: Individual Tmax
Procedure: A study was conducted to evaluate the toxicokinetics of patidegib when administered twice daily via dermal application for 13 weeks. As described in Example 11, the formulation identified herein as SS14 was prepared, with patidegib concentrations of 2% and 4%. The formulations, along with a placebo, were applied topically to Gottingen Minipigs® twice daily, and blood samples were collected on study days 1, 14 and 90 for analysis of patidegib and its metabolite, IPI-230.
A study was conducted to determine the toxicokinetics of patidegib and its metabolite, IPI-230, when patidegib was administered twice daily (approximately 8 hours apart) to Gottingen Minipigs® via dermal application for 13 weeks.
The formulation identified herein as SS14 was prepared, with 2% patidegib and with 4% patidegib. A placebo formulation was also prepared that was identical in all respects to SS14 except for the absence of the patidegib. The formulation was applied topically to the animals at patidegib dose levels of 0 mg/kg/day (untreated), 0 mg/kg/day (placebo), 40 mg/kg/day, and 80 mg/kg/day to Groups 1, 2, 3, and 4, respectively. Groups 1 and 3 consisted of four animals/sex/group and Groups 2 and 4 consisted of six animals/sex/group. Doses were administered twice daily (approximately 8 hours apart). Blood samples were collected from all animals, survival permitting, on Days 1, 14 (Group 4 only), and 90 predose and at approximately 2, 4, 6, 8 (just prior to the second daily dose), 10, 12, 14, 16, and 24 hours following the first daily dose. Plasma samples were assayed for patidegib and IPI-230. Only the 2-hour samples from the untreated and placebo groups were analyzed.
Noncompartmental analysis was applied to the individual plasma patidegib and IPI-230 concentration data for males and females. The following parameters were estimated: Cmax—Maximum observed concentration; Tmax—Time of maximum observed concentration; AUCTlast—Area under the concentration-time curve from hour 0 to the last measurable concentration, estimated by the linear trapezoidal rule; AUC0-24—Area under the concentration-time curve from hour 0 to hour 24, estimated by the linear trapezoidal rule; DN AUC0-24—Dose normalized AUC0-24, calculated as AUC0-24/dose level; DN Cmax—Dose normalized Cmax, calculated as Cmax/dose level.

[4] = system: cellular hedgehog pathway; details: Tremblay et al., J. Med. Chem. 2009; read-out: half maximal effective concentration for inhibition of cellular hedgehog pathway; cited from earlier work
[5] = minimum of 24 hours stirring at 25° C.
[6] = both sexes, 40 mg/kg/day, Day 90, Group 3, 40 mg/kg/day dermal twice daily, sexes combined MF
[7] = both sexes, 80 mg/kg/day, Day 1, Group 4, 80 mg/kg/day dermal twice daily, sexes combined MF
[8] = both sexes, 80 mg/kg/day, Day 14, Group 4, 80 mg/kg/day dermal twice daily, sexes combined MF
[9] = both sexes, 80 mg/kg/day, Day 90, Group 4, 80 mg/kg/day dermal twice daily, sexes combined MF
[10] = female, 40 mg/kg/day, Day 1, Group 3, 40 mg/kg/day dermal twice daily, sex F
[11] = female, 40 mg/kg/day, Day 90, Group 3, 40 mg/kg/day dermal twice daily, sex F
[12] = female, 80 mg/kg/day, Day 1, Group 4, 80 mg/kg/day dermal twice daily, sex F
[13] = female, 80 mg/kg/day, Day 14, Group 4, 80 mg/kg/day dermal twice daily, sex F
[14] = female, 80 mg/kg/day, Day 90, Group 4, 80 mg/kg/day dermal twice daily, sex F
[15] = male, 40 mg/kg/day, Day 90, Group 3, 40 mg/kg/day dermal twice daily, sex M
[16] = male, 80 mg/kg/day, Day 1, Group 4, 80 mg/kg/day dermal twice daily, sex M
[17] = male, 80 mg/kg/day, Day 14, Group 4, 80 mg/kg/day dermal twice daily, sex M
[18] = male, 80 mg/kg/day, Day 90, Group 4, 80 mg/kg/day dermal twice daily, sex M

solubility of itraconazole in water [2]: highly insoluble | saturated solubility of itraconazole in N-methyl pyrrolidone [2, 5]: 7.65 % w/w | solubility of itraconazole in benzyl alcohol [2, 5]: 14.97 % w/w | solubility of itraconazole in castor oil [2, 5]: 0.01-0.05 % w/w | solubility of itraconazole in diisopropyl adipate [2, 5]: 0.01-0.05 % w/w | solubility of itraconazole in dimethicone 350 CST [2, 5]: 0.01-0.05 % w/w | solubility of itraconazole in dimethyl isosorbide [2, 5]: 2.32 % w/w | solubility of itraconazole in ethanol [2, 5]: 0.01-0.05 % w/w | solubility of itraconazole in phenoxyethanol [2, 5]: 7.87 % w/w | solubility of itraconazole in the remaining solvents investigated (not shown) [2, 5]: 0.01-0.20 % w/w
SMILES: CCC(C)n1ncn(-c2ccc(N3CCN(c4ccc(OCC5COC(Cn6cncn6)(c6ccc(Cl)cc6Cl)O5)cc4)CC3)cc2)c1=O [itraconazole, (2R,4S)-rel-1-(butan-2-yl)-4-{4-[4-(4-(4-{[(2R,4S)-2-(2,4-dichlorophenyl)-2-(1H-1,2,4-triazol-1-ylmethyl)-1,3-dioxolan-4-yl]methoxy}phenyl)piperazin-1-yl]phenyl}-4,5-dihydro-1H-1,2,4-triazol-5-one]
IC50 [1]: 0.8 µM

SMILES: CC1=C2C[C@H]3[C@@H](CC[C@@H]4C[C@H](NS(C)(=O)=O)CC[C@@]43C)[C@@H]2CC[C@@]2(C1)O[C@@H]1C[C@H](C)CN[C@H]1[C@H]2C [patidegib]
dose proportionality of increases in mean Cmax and AUC0-24 ([3]; 40 to 80 mg/kg/day, Day 90): generally greater than dose proportional | Cmax [3, 6]: 21.9 ng/mL | AUC(0-t) [3, 6]: 329 ng·h/mL | Cmax [3, 7]: 3.93 ng/mL | AUC(0-t) [3, 7]: 37.1 ng·h/mL | Cmax [3, 8]: 249 ng/mL | AUC(0-t) [3, 8]: 4110 ng·h/mL | Cmax [3, 9]: 75.8 ng/mL | AUC(0-t) [3, 9]: 1240 ng·h/mL | Tmax ([3]; both sexes, post the first or second dose on Day 1): 2 to 8 h | Tmax ([3]; both sexes, post the first or second dose on Days 14 and 90): 2 to 6 h | Cmax [3, 10]: 4.65 ng/mL | AUC(0-t) [3, 10]: 56.7 ng·h/mL | Cmax [3, 11]: 35 ng/mL | AUC(0-t) [3, 11]: 526 ng·h/mL | Cmax [3, 12]: 4.03 ng/mL | AUC(0-t) [3, 12]: 36.3 ng·h/mL | Cmax [3, 13]: 410 ng/mL | AUC(0-t) [3, 13]: 6820 ng·h/mL | Cmax [3, 14]: 141 ng/mL | AUC(0-t) [3, 14]: 2310 ng·h/mL | Cmax [3, 15]: 8.68 ng/mL | AUC(0-t) [3, 15]: 132 ng·h/mL | Cmax [3, 16]: 3.84 ng/mL | AUC(0-t) [3, 16]: 37.7 ng·h/mL | Cmax [3, 17]: 88.7 ng/mL | AUC(0-t) [3, 17]: 1390 ng·h/mL | Cmax [3, 18]: 21.4 ng/mL | AUC(0-t) [3, 18]: 352 ng·h/mL | EC50 [4]: 0.007 µM
